Assay [1] deals with X. campestris, E. coli, B. subtilis and S. aureus. The assay is described as follows: Antibacterial activity, MIC summarised over the bacteria tested. Type of assay: cell-based. The conditions noted are these: read-out: MIC values against the bacteria tested. As for the experimental part: buffer (50 mM, pH 7.4). The absorbance was measured at 230 nm after 10 min. The antioxidant activity (reduction of H2O2) of the compounds was expressed as the percentage decrease of the initial H2O2 solution (H2O2%). L−ascorbic acid (or vitamin C) was used as a […]
S2 Antibacterial Activity studies
The antibacterial activity of the compounds was evaluated by determining their respective MIC values towards two Gram–(–) (Escherichia coli XL1 (E. coli) and Xanthomonas campestris ATCC 1395 (X. campestris)) and two Gram–(+) (Staphylococcus aureus ATCC 29213 (S. aureus) and Bacillus subtilis ATCC 6633 (B. subtilis)) bacterial species. Cultures of these microbial strains were grown on a rich selective agar medium and stored at 4°C. The selective media used were Nutrient Agar or Broth for B. subtilis and S. aureus, Yeast Mold Agar or Broth for X. campestris and Luria Agar or Broth for E. coli. Cells picked from the surface of the stored cultures were used to initiate liquid pre–cultures of the same selective medium at an initial turbidity of roughly 1 McFarland unit.
Pre–cultures were incubated for 24 h in a rotary shaking incubator and subsequently […]
progressive double dilution.

Assay [2] has as its system supercoiled circular pBR322 plasmid DNA. The assay is described as follows: Cleavage and photocleavage of plasmid DNA (gel electrophoresis). The note with it: compound 500 μM. Type of assay: biochemical. As for the experimental part: The cleavage of pBR322 plasmid DNA was evaluated both in the presence and absence of irradiation in order to further explore the interaction of the synthesized compounds with DNA and their possible biological efficacy. […] Following incubation of the samples at 37 °C, the impact of the compounds on pDNA was assessed using gel electrophoresis on 1% agarose gels stained with EB. Irradiation at 312 nm (UVB for 30 min), at 365 nm (UVA, for 120 min) or visible light (for 120 min) was also applied to further investigate the possibility of photocleavage activity of the compounds. […] The extent of pDNA damage from each compound was assessed by calculating the percentage of ss% and ds% using Equations (S4) and (S5).
S3.4 EB−displacement studies
The competition of the compounds with EB was investigated by fluorescence emission spectroscopy to examine whether the compounds can displace EB from its DNA−EB adduct. […] The solutions were excited at 540 nm and the emission was monitored from 550−700 nm with λmax = 592−594 nm and the effect of the addition of the compounds to the CT−DNA EB solution was recorded. […]
fluorescence emission bands at room temperature in solution or in the presence of CT DNA or EB under the same experimental conditions (λexcitation = 540 nm); therefore, the observed quenching of the EB−DNA solution may be attributed to the displacement of EB from its […]

Experimental findings from publication PMC12195967, “Cobalt(II) Complexes of 4′–Nitro–Fenamic Acid: Characterization and Biological Evaluation” (Molecules, 2025) are described below.

SMILES strings stand for the structures. Like-named read-outs stand apart in the source and are kept apart here.

On to `O=C(O)c1ccccc1Nc1ccc([N+](=O)[O-])cc1` [4′–NO2–fenH, 4′–nitrofenamic acid], for which the values for the minimum inhibitory concentration (MIC) in assay [1] and in assay [1] (summary over the four strains) were 48 to 97 µM and 12.5 to 25 µg/mL, respectively. Further, the “total pDNA damage” value in assay [2] (dark, 150 min) is 57%.

Molecule `O=C([O-])c1ccccc1Nc1ccc([N+](=O)[O-])cc1.O=C([O-])c1ccccc1Nc1ccc([N+](=O)[O-])cc1.[Co+2].c1cnc2c(c1)ccc1cccnc12` [Complex 3, [Co(4′–NO2–fen)2(phen)]] came in with a pDNA damage in assay [2] (UVB irradiation 312 nm, 30 min) of 89%.

As a reminder, the MIC is the lowest concentration that inhibits growth of the organism.
